According to patent US20160158240A1, “Compositions Containing Defined Caffeine and Theobromine Levels with Enhanced Cognitive Properties” (The Hershey Company, priority 2014, published 2016):

Key:
[1] = tested on: subjects with a caffeine habit; assay: fMRI connectivity and brain blood flow analysis after test beverage; format: in vivo, human; details: subject that routinely ingests caffeine; brain regions consistent with caffeine cravings; FIG. 1 and FIG. 3
Text: Measurement or detection of changes in the brain can be done using functional MRI (fMRI) and functional brain network analyses as known in the art. The following is an exemplary study using known techniques based upon fMRI scanning of human brains.
These examples represent an intervention study (number of subjects=24) with a randomized controlled, double-blind, placebo-controlled crossover design. The study is designed to ensure completion of all possibilities in the order of delivering the test samples, i.e. each subject is administered each of the possible test beverages in different order. […] For initial baseline testing, subjects undergo 16 hours of caffeine and chocolate withdrawal for a baseline testing and then participate in four separate brain scanning visits over 5-10 weeks. Study participants are ideally healthy adults 18-55 who consume moderate (200-500 mg) amounts of caffeine daily. […] As determined from a medical screening session, any subjects with active neurological dysfunction (such as a major Axis I psychopathology, Alzheimer's disease, Parkinson's disease, prior history of stroke, epilepsy, or serious CNS trauma, ADHD, migraines, hypertension, diabetes, peripheral vascular disease, or taking vasoactive medications, such as antihypertensive medications) are excluded from the study. […]

brain blood flow = details: study using 6 participants; cited from earlier work

## Cn1c(=O)c2c(ncn2C)n(C)c1=O [Caffeine, caffeine]
[1]
  change in blood flow/connectivity by fMRI: reduction in blood flow/connectivity
Brain blood flow
  brain blood flow difference between caffeine and theobromine: 5.03 ml/100 gm tissue/min
